# Key:
# NCI-H358 cells = test: Proliferation inhibition of NCI-H358 cells (CellTiter-Glo); assay type: cell-based; conditions: Homo sapiens, NCI-H358, 72 h; 3 days incubation
# Method: Experimental method: 3000 cells (90 μL of cell suspension) were inoculated to each well of a 96-well cell culture plate (Corning, #3610). The culture plate was incubated in an incubator overnight (37° C., 5% CO2). On the next day, 10 μL of gradient dilutions of the test compound solution (the final DMSO content was 0.2%, V/V, the final concentration of the reaction system ranged from 10 μM to 4.5 nM) was added to each well of the culture plate. At the same time, full activity control (compound only with DMSO) and full inhibition control (no cells) were set up on the reaction plate. The culture plate was incubated in the incubator for 3 days (37° C., 5% CO2).
# After completion of the incubation, 50 μL of CellTiter-Glo reagent was added to each well of the cell culture plate, which was left to stand at room temperature for 10 minutes. The chemiluminescence signal value was measured in the Synergy H1 full-function microplate reader (BioTek). […] The IC50 value of the test compounds was calculated by fitting the percentage inhibition rate and data of eight concentrations to a four-parameter nonlinear logic formula with GraphPad prism.
# The IC50 value was calculated by fitting the data of different concentrations and corresponding percentage inhibition rates to a four-parameter nonlinear logic formula with GraphPad prism.
# [1] = Pharmacokinetics assay in mice, oral administration; assay type: in vivo; conditions: mouse; male Balb/c mice, oral 5 mg/kg, plasma
# Method: Balb/c mice were used as test animals.
# 5 g of hydroxyethyl cellulose (HEC, CMC-Na, viscosity: 800-1200 Cps) was dissolved in 1000 mL of purified water, and 10 g of Tween80 was added. The solution was mixed well to form a clear solution. […] The solution was subjected to ultrasound for 10 minutes to obtain a colorless and clear solution with a concentration of 0.5 mg/mL.
# After an overnight fast, male Balb/c mice were administrated orally with the test compounds at an administration dose of 5 mg/kg and an administration volume of 10 mL/kg.
# Blood was taken before administration and at 0.25 hour, 0.5 hour, 1 hour, 2 hours, 4 hours, 6 hours, 8 hours and 24 hours after administration. The blood samples were stored in EDTA-2K tubes, and centrifuged for 6 minutes at 6000 rpm, at 4° C. to separate the blood plasma. The plasma samples were stored at −80° C. The mice were fed four hours after administration.
# [2] = test system: human pancreatic cancer cell MiaPaca 2 xenograft; test: Tumor inhibition test on MiaPaca 2 xenograft model; assay type: in vivo, Balb/c nude mice; conditions: intragastric
# Method: Balb/c nude mice were used as test animals. In vivo pharmacodynamic test was carried out on human pancreatic cancer cell MiaPaca 2 xenograft (CDX) model to evaluate the anti-tumor effect of the test compounds.
# MiaPaca 2 cells were taken from the cell bank and thawed. The cells were added to the DMEM medium (containing 10% FBS, 1% Glu and 1% P/S), and incubated in the CO2 incubator (the temperature of the incubator was 37° C., and the CO2 concentration was 5%). After the cells covered 80-90% of the bottom of the culture flask, the cells were passaged. After passage, the cells continued to be incubated in the CO2 incubator. The process was repeated until the number of cells met the inoculation requirement of the in vivo pharmacodynamic test. The cells in logarithmic growth phase were collected, and counted by the automatic cell counter. According to the counting results, the cells were resuspended with PBS and Matrigel (volume ratio: 1:1) to obtain a cell suspension (density: 8×10^7/ml), which was placed in an ice box for later use.
# Female Balb/c nude mice (6-8 weeks old, body weight: about 18-22 grams) were used as test animals. The mice were maintained in an environment free of special pathogens and in a single ventilated cage (five mice per cage). All cages, bedding and water were disinfected before use. All animals had free access to standard certified commercial laboratory animal diets. The nude mice were marked with a disposable universal ear tag for rats and mice before the test. The skin of the inoculation site was disinfected with 75% medical alcohol before the inoculation. Each mouse was inoculated with 0.1 ml of MiaPaca 2 tumor cells (containing 8*10^6 cells) subcutaneously on the right back. When the average tumor volume reached 100 to 200 mm^3, administration was carried out. The test compounds were administered intragastrically daily. The tumor volume (mm^3) was measured with the vernier caliper twice a week. The tumor volume calculation formula: V=0.5*D*d*d, wherein D and d represent the long diameter and short diameter of the tumor, respectively. The anti-tumor efficacy was determined by dividing the average tumor increase volume of the compound-treated animals by the average tumor increase volume of the untreated animals. Tumor growth inhibition rate calculation formula: […]
# All animals were euthanized after the experiment.
Compound,IC50 (NCI-H358 cells),AUC(0-inf) [1],Cmax [1],MRT [1],Tmax [1],Tumor volume (Mean ± SD) Day 0 ([2]; 3 mg/kg QD × 3 w),TGI Day 21 ([2]; 3 mg/kg QD × 3 w),Tumor volume (Mean ± SD) Day 21 ([2]; 3 mg/kg QD × 3 w),ΔT/ΔC Day 21 ([2]; 3 mg/kg QD × 3 w),half-life [1],Tumor volume (Mean ± SD) Day 0 ([2]; 6 mg/kg QD × 3 w),TGI Day 21 ([2]; 6 mg/kg QD × 3 w),Tumor volume (Mean ± SD) Day 21 ([2]; 6 mg/kg QD × 3 w),ΔT/ΔC Day 21 ([2]; 6 mg/kg QD × 3 w),Tumor volume (Mean ± SD) Day 0 ([2]; 10 mg/kg QD × 3 w),TGI Day 21 ([2]; 10 mg/kg QD × 3 w),Tumor volume (Mean ± SD) Day 21 ([2]; 10 mg/kg QD × 3 w),ΔT/ΔC Day 21 ([2]; 10 mg/kg QD × 3 w)
"Nc1nccc(Sc2cnc(N3CCC4(CC=C(C5CC5)[C@H]4N)CC3)cn2)c1Cl [Example 144, (S)-8-(5-((2-amino-3-chloropyridin-4-yl)thio)pyrazin-2-yl)-2-cyclopropyl-8-azaspiro[4.5]dec-2-en-1-amine]",9.19 nM,5390 ng·h/mL,436 ng/mL,9.08 h,1 h,172 ± 26 (173 ± 28) mm^3,95.07%,216 ± 66 mm^3,4.93%,–,–,–,–,–,–,–,–,–
"Cc1nc(N2CCC3(CC2)Cc2ncsc2[C@H]3N)c(CO)nc1Sc1ccnc(N)c1Cl [Example 171, (S)-(6-((2-amino-3-chloropyridin-4-yl)thio)-3-(6-amino-4,6-dihydrospiro[cyclopenta[d]thiazole-5,4′-piperidin]-1′-yl)-5-methylpyrazin-2-yl)methanol]",11.9 nM,2210 ng·h/mL,475 ng/mL,4.34 h,0.5 h,–,–,–,–,3.07 h,167 ± 26 (168 ± 32) mm^3,95.43%,198 ± 70 mm^3,4.57%,–,–,–,–
"Nc1nc(N2CCC3(CC2)Cc2ccccc2[C@H]3N)c(F)nc1Sc1ccnc(N)c1Cl [Example 179, (S)-1′-(6-amino-5-((2-amino-3-chloropyridin-4-yl)thio)-3-fluoropyrazin-2-yl)-1,3-dihydrospiro[indene-2,4′-piperidin]-1-amine]",20.9 nM,2440 ng·h/mL,179 ng/mL,7.92 h,0.5 h,–,–,–,–,5.23 h,166 ± 28 (168 ± 32) mm^3,91.00%,227 ± 37 mm^3,9.00%,–,–,–,–
"Nc1nc(N2CCC3(CC2)Cc2ncsc2[C@H]3N)c(F)nc1Sc1ccnc(N)c1Cl [Example 181, (S)-1′-(6-amino-5-((2-amino-3-chloropyridin-4-yl)thio)-3-fluoropyrazin-2-yl)-4,6-dihydrospiro[cyclopenta[d]thiazole-5,4′-piperidin]-6-amine]",46.5 nM,8160 ng·h/mL,1380 ng/mL,5.07 h,0.5 h,–,–,–,–,4.63 h,–,–,–,–,176 ± 36 (176 ± 39) mm^3,92.94%,240 ± 86 mm^3,7.06%

# — US20210355105A1, “REGULATOR OF NITROGEN-CONTAINING HETEROAROMATIC DERIVATIVES, PREPARATION METHOD THEREFOR AND USE THEREOF” (Jiangsu Hansoh Pharmaceutical Group Co., Ltd., priority 2018, published 2021)
